Assay results from patent publication US11661259B2, “Apparatus, arrangement and method for providing skin care ingredients” (MEMORIAL SLOAN-KETTERING CANCER CENTER, priority 2013, dated 2023).

Legend:
[1] = Decay of vitamin stored in liquid solution (loss of initial activity); conditions: dissolved in a liquid solution, stored in a closed and dark container, after 60 days
[2] = Time required to completely dissolve Vitamin C powder in water; assay type: physicochemical
Description: 1. Determine the amount of time required to completely dissolve Vitamin C powder with 12 to 15 cc of water. In general, it requires 45 to 120 seconds to completely dissolve 1% to 15% Vitamin C powder in water.

Row | Compound | loss of initial activity [1] | Time to completely dissolve ([2]; 1% to 15% Vitamin C powder in water) | Time to completely dissolve ([2]; 1 wt % Vitamin C, 151 mg in 15 g water) | Time to completely dissolve ([2]; 5 wt % Vitamin C, 526 mg in 12 g water) | Time to completely dissolve ([2]; 10 wt % Vitamin C, 1107 mg in 12 g water) | Time to completely dissolve ([2]; 15 wt % Vitamin C, 1765 mg in 12 g water) | Time to completely dissolve ([2]; 20 wt % Vitamin C, 2496 mg in 12 g water)
1 | tocopherol [Vitamin E] | ~35% | – | – | – | – | – | –
2 | O=C1O[C@H]([C@@H](O)CO)C(O)=C1O [Vitamin C, L-ascorbic acid] | ~72% | 45 to 120 s | 60 s | 45 s | 75 s | 120 s | 210 s
